We go through seven molecules from US6825217B2, “Carbinols for the treatment of neuropathic dysfunction” (Endo Pharmaceuticals, Inc., priority 2001, dated 2004).

As usually defined, the melting point is the temperature of the solid-liquid transition. Broadly, the ED50 is the dose at which the effect has come halfway, by size or by number of responders.

For data set [1] the following is noted: CCI rats, cited from earlier work.
The conditions of data set [2]: sometimes fatally; U.S. Food and Drug Administration; cited from earlier work.
Data set [3] can be described thus: Mouse antiphenylquinone writhing (PQW) test. The format is in vivo. Conditions: Mus musculus. As for the experimental part: (§1) The anti-phenylquinone writhing (PQW) test modified from the methods of Siegmund et al. (Proc. Soc. Exp. Biol. Med. 95: 729-731, 1957) and Blumberg et al. (Proc. Exp. Biol. Med. 118: 763-767, 1965) was used to assess the relief from the simulated symptoms of neuropathic pain in mice. Male CF1 mice (Charles River Breeding Laboratories, Wilmington, Mass.), fasted for 16-22 hours and weighing 18-23 g, were injected with randomized and coded doses of test compounds, then challenged with 1.25 mg/kg i.p. phenyl-p-benzoquinone (phenylquinone) 5 minutes prior to the specified observation time. The phenylquinone solution (0.1 mg/ml in 5% aqueous ethanol) was prepared daily and stored in foil-wrapped amber bottles to limit degradation. Mice were observed 10 minutes for the presence or absence of the characteristic abdominal constriction and stretching response beginning 30 minutes after injection of the test compound. Activity was calculated as the percentage of mice failing to respond to the phenylquinone challenge dose. […] Median effective doses (ED50's) and 95% confidence limits were determined numerically by the methods of Thompson (Bacteriological Rev. 11: 115-145, 1947), and Litchfield and Wilcoxon (J. Pharmacol. Exp. Ther. 96: 99-113, 1949).
(In general: An intraperitoneal irritant provokes the stretching counted in writhing tests.)

Another data set in a line: Rat Hot Plate. The format is in vivo.
Another data set can be described thus: Mouse Tail-Flick. The format is in vivo. Conditions: Mus musculus; read-out: Mouse Tail-Flick ED50 (unit inferred).
A further data set is described as follows: Rat PQW. The conditions noted are these: Rattus norvegicus. The format is in vivo. As for the experimental part: as §1
Data set [4] can be described thus: Chung model (tactile allodynia). The conditions noted are these: rat; two hours post injection; doses 200 mg/kg and 100 mg/kg. The format is in vivo, rat. As for the experimental part:
This model for neuropathic pain was performed on rats using the surgical procedure described by Kim and Chung (1992) to induce an allodynic state. Briefly, the left L-5 and L-6 spinal nerves were isolated adjacent to the vertebral column and ligated with 6-0 silk suture distal to the dorsal root ganglion under isoflurane anesthesia. This model allows for spinal cord structural reorganization and growth of low threshold mechnoreceptor fibers from the spinal cord with synaptic connections and rewiring of the dorsal horn. This leads to spontaneous firing of invading sympathetic nerves and upregulation of receptors and voltage-dependent channels; i.e. mimics the development of allodynia (nociceptive response to a previously neutral stimulus). The rats were allowed a minimum of 7-days postoperative recovery period before testing.
To assess tactile thresholds in the Chung model, rats were placed in a clear plastic, wire mesh-bottomed cage, divided into individual compartments. Animals were allowed to acclimate and then baseline thresholds were assessed prior to drug treatment. To assess the 50% mechanical threshold for paw withdrawal, von Frey hairs were applied to the plantar mid-hindpaw, avoiding the tori (footpads). The eight von Frey hairs used are designated by [log (10*force required to bend hair, mg)] and range from 0.4-15.1 grams (#'s 3.61-5.18). Each hair was pressed perpendicularly against the paw with sufficient force to cause slight bending, and held for approximately 6-8 seconds. A positive response was noted if the paw was sharply withdrawn. Flinching immediately upon removal of the hair was also considered a positive response. Absence of a response (“−”) was cause to present the next consecutive stronger stimulus; a positive response (“+”) was cause to present the next weaker stimulus. Stimuli were presented successively until either six data points were collected, or the maximum or minimum stimulus was reached. If a minimum stimulus was reached and positive responses still occurred, the threshold was assigned an arbitrary minimum value of 0.25 grams; if a maximum stimulus was presented and no response occurred, a maximum threshold value of 15 grams was assigned. If a change in response occurs, either “−” to “+” or “+” to “−”, causing a change in the direction of stimulus presentation from descending to ascending or vice-versa, four additional data points were collected subsequent to the change.

Another data set can be described thus: Formalin model. The conditions noted are these: rat, versus saline control. The format is in vivo. From the text: Formalin induces inflammatory stimulation of peripheral nerves that results in sensitization of CNS nociceptive transmission pathways. There are two phases of formalin-induced nociception: phase I—an acute nociceptive component; and phase II—a chronic nociceptive component characterized by hyperalgesia.
On the morning of formalin testing, a small metal band (0.5 g) was loosely placed around the right hind paw. The rat was placed in a cylindrical Plexiglas chamber for adaptation for a minimum of 30 minutes. Compound A, venlafaxine or a saline control was administered into the dorsal surface of the right hindpaw of the rat. The animal was then placed into the chamber of the automated formalin apparatus where movement of the formalin-injected paw was monitored and the number of paw flinches tallied by minute over the next sixty minutes. Upon completion of the test the animal was removed and euthanized.

The next data set is described as follows: Rat Tail-Flick. The format is in vivo.
Data set [5] has as its system subunit of a voltage-gated calcium channel. Conditions: cited from earlier work.
The next data set relates to GABA receptors. Conditions: cited from earlier work.
Setting [6] is: intraperitoneal, high doses of up to 600 mg/kg.
The mark [7] stands for this setting: intraperitoneal 10 to 75 mg/kg, at two and four hours.

SMILES strings stand for the structures. Read-outs that look alike come from different tables or passages of the source.

As to `CCN1CCC(c2cccc(Cl)c2)(C(C)O)CC1` (stereo not shown), the melting point was 89 to 94 °C.

Consider `CN1CCC(c2cccc(Cl)c2)(C(C)(C)O)C1` (stereo not shown), for which the melting point fell in the range of 98 to 99 °C.

For the molecule `CC(O)C1(c2cccc(Cl)c2)CCCN(C)CC1` (stereo not shown), the melting point is 123 to 124 °C.

For the molecule `NC(=O)OCC(COC(N)=O)c1ccccc1` [Felbamate, felbamate], in [1] (setting [6]), the heat hyperalgesia result is “completely abolished”, the hindpaw guarding entry is “completely abolished”, the mechanical allodynia result is “completely abolished” and the mechanical hyperalgesia result is reported as “completely abolished”. Moreover, the “responses in the control hindpaw” value in data set [1] (intraperitoneal) is “unaffected”. Besides, the toxicity in humans entry in data set [2] is “liver failure and aplastic anemia”.

In the case of `COc1cccc(C2(O)CCCCC2CN(C)C)c1` (stereo not shown) [TRAMADOL, Tramadol, reference compound], the median effective dose (ED50) in data set [3] came to 7.8 mg/kg; in the data set “Rat Hot Plate” (Rattus norvegicus) it was 40 mg/kg; in the data set “Mouse Tail-Flick”, 31.2 mg/kg.

Turning to `COc1ccc(C(CN(C)C)C2(O)CCCCC2)cc1` (stereo not shown) [Venlafaxine, reference compound], the 50% effect level in the data set “Rat PQW” (ED50) was put at a dose of 39.2 mg/kg. The “Rat Hot Plate ED50” value in the data set “Rat Hot Plate” (rat) is listed as “Inactive”. Also, in [4], the “effects on tactile allodynia” value is recorded as “statistically significant effects”. In addition, the “formalin test, paw flinches, phase I” value in the data set “Formalin model” (all administered doses (200/100/50 mg per kg)) was “statistically significant effects”. In “Formalin model” (all administered doses), the “formalin test, paw flinches, phase II” value is “statistically significant effects only during phases I and IIA”; the “formalin test, paw flinches, phase IIA” value is recorded as “statistically significant effects”. For the same molecule, in “Formalin model”, the “formalin test, paw flinches, Phase IIB” value is on record as “No statistical significance”. Further, in “Rat Tail-Flick”, the “Rat Tail-Flick” value is recorded as “Inactive”.

Turning to `NCC1(CC(=O)O)CCCCC1` [gabapentin], in data set [5], the “binding to a subunit of a voltage-gated calcium channel” value is “binds with high affinity”. In data set [1], the “responses on the control side” value is listed as “no significant change”. Also, in data set [1] (setting [7]), the heat hyperalgesia entry is reported as “suppressed” and the mechanical allodynia result is recorded as “suppressed”. In addition, in [1] (intraperitoneal 10 to 75 mg/kg), the mechanical hyperalgesia result is recorded as “lacked effect”. In addition, the “responses at 24 hours” value in data set [1] (intraperitoneal, 24 hours) was “abnormal responses had returned”. In data set [1] (intrathecal to the lumbar spinal cord, 37.5 to 150 mcg/kg), the “pattern of effects after intrathecal injection” value is “the pattern was similar”. For the same molecule, in the data set on GABA receptors, the “effect on GABA receptors” value is reported as “no direct effect”.
